Some targets named below: Motilin receptor (Homo sapiens, UniProt O43193); Histamine H1 receptor (Homo sapiens, UniProt P35367); Melanocortin receptor 3 (Homo sapiens, UniProt P41968).
In assay [1] the target is T1, 5-hydroxytryptamine receptor 2C (Homo sapiens, UniProt P28335).
T1 sequence (P28335 whole entry): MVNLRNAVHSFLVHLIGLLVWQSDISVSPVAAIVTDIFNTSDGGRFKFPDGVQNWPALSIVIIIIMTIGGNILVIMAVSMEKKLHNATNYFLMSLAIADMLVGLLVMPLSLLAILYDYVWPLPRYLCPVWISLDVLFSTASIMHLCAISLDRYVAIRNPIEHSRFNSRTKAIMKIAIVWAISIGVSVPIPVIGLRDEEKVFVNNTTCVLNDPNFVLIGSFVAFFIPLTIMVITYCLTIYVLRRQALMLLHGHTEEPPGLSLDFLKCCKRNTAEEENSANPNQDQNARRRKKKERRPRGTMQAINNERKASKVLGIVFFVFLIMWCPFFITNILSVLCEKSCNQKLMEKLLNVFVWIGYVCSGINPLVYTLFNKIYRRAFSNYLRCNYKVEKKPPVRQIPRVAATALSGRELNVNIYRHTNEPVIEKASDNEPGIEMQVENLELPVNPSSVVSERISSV

Assay [2] has as its target Sodium-dependent serotonin transporter (Homo sapiens, UniProt P31645).
Assay [3] concerns the target Glutamate receptor ionotropic, NMDA 1 (Rattus norvegicus, UniProt P35439).
Assay [4] has as its target Gamma-aminobutyric acid receptor subunit alpha-1 (Rattus norvegicus, UniProt P62813). In kind it is functional.
The target of assay [5] is Kappa-type opioid receptor (Homo sapiens, UniProt P41145).
Chain of Kappa-type opioid receptor (P41145 whole entry): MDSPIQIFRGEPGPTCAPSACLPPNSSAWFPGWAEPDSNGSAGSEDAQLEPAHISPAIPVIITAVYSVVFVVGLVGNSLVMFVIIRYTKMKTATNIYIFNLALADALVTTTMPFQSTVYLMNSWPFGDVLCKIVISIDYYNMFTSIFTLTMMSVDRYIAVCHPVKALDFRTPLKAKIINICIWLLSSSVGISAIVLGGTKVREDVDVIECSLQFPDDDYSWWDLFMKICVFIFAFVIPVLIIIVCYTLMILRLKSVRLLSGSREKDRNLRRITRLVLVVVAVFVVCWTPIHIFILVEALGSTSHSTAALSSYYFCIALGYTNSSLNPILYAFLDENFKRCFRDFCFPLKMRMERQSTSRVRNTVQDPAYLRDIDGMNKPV
Assay [6] concerns the target T2, Alpha-2B adrenergic receptor (Homo sapiens, UniProt P18089).
T2 sequence (P18089 whole entry): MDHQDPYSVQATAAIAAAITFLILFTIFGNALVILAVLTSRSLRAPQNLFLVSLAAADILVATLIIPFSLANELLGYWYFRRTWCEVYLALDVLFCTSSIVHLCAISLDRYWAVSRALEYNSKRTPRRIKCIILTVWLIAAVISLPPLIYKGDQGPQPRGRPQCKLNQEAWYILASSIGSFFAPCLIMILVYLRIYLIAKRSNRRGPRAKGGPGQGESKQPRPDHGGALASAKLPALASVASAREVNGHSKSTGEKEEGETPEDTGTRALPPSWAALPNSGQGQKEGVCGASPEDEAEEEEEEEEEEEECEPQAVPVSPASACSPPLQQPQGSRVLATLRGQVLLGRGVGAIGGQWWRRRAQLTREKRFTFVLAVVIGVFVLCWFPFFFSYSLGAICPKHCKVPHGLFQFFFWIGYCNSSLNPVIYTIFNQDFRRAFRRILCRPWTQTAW

The target in assay [7] is T3, Equilibrative nucleoside transporter 1 (Homo sapiens, UniProt Q99808).
T3 sequence (Q99808 whole entry): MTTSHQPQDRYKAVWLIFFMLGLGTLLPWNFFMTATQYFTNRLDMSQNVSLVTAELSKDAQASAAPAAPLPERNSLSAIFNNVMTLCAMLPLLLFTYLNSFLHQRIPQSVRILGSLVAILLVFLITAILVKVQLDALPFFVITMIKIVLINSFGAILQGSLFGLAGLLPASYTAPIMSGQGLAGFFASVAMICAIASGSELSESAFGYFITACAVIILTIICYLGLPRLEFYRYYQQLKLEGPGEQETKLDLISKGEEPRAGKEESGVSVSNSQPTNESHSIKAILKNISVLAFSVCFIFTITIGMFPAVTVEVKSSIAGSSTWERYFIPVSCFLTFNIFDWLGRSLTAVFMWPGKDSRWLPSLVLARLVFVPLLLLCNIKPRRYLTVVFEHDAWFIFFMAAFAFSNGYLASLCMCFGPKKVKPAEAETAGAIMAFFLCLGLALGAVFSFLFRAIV

Assay [8] addresses T4, 5-hydroxytryptamine receptor 1A (Homo sapiens, UniProt P08908).
T4 sequence (P08908 whole entry): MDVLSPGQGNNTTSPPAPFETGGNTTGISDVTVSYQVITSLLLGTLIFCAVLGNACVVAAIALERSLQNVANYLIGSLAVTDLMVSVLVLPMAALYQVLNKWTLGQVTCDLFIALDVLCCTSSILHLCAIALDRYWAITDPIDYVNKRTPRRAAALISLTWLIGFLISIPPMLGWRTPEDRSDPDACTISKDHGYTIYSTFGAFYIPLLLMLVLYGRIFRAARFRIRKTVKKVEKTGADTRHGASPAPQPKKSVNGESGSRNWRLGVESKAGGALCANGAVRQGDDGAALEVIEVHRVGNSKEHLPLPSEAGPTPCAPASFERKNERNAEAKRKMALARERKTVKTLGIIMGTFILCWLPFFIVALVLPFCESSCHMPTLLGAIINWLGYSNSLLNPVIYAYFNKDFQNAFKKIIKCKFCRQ
In kind it is functional, cell-based.

For assay [9], the target named is cGMP-inhibited 3',5'-cyclic phosphodiesterase 3A (Homo sapiens, UniProt Q14432). In kind it is functional.
Chain of cGMP-inhibited 3',5'-cyclic phosphodiesterase 3A (Q14432 whole entry): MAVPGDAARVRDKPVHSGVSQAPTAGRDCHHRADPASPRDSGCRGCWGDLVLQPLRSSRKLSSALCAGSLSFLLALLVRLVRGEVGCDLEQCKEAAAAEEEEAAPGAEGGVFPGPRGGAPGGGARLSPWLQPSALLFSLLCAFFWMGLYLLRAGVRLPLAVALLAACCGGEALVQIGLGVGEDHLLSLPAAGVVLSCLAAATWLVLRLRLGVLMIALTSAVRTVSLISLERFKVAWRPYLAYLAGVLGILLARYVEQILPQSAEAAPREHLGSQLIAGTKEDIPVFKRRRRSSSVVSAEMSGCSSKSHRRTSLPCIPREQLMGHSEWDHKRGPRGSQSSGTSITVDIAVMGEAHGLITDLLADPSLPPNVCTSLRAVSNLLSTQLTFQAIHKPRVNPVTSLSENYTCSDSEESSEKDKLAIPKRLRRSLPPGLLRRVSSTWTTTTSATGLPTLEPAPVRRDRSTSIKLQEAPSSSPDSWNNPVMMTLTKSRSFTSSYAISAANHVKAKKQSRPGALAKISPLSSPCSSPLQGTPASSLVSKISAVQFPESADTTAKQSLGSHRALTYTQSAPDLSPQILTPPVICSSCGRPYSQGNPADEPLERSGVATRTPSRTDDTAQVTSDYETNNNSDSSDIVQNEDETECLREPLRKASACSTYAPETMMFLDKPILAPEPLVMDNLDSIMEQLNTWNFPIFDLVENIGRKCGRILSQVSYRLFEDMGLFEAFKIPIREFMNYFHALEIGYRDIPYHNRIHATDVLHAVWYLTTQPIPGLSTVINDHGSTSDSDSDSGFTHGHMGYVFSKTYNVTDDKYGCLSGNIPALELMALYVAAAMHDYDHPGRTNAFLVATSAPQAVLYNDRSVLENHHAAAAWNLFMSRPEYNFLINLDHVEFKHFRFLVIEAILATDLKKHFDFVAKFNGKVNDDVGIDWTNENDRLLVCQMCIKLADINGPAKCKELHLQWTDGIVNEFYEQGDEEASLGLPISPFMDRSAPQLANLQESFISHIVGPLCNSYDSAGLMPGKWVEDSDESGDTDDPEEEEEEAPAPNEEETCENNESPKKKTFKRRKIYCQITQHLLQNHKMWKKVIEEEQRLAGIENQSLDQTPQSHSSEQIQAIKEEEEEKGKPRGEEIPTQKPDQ
Assay [10] has as its target T5, Alpha-1A adrenergic receptor (Homo sapiens, UniProt P35348).
T5 sequence (P35348 whole entry): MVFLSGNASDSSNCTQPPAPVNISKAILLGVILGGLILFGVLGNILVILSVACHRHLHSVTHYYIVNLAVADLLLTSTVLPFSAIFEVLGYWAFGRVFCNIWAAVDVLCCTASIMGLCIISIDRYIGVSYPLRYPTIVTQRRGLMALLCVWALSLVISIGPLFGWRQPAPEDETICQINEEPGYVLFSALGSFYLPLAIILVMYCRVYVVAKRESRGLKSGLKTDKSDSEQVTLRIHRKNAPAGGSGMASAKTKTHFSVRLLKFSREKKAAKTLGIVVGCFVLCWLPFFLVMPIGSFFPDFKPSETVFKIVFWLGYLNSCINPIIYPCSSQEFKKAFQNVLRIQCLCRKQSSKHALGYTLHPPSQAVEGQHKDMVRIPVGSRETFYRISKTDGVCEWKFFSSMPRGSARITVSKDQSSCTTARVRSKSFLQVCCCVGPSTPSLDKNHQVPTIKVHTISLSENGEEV
In kind it is functional, cell-based.

Molecules are shown by their SMILES. Where only a bound is given, the exact number is not on record here.

Data on ten molecules can be found in ChEMBL document CHEMBL5291721, “A preclinical secondary pharmacology resource illuminates target-adverse drug reaction associations of marketed drugs” (Nat Commun, 2023).
Also: assay procedure not described here.

Chain of Motilin receptor (O43193 whole entry): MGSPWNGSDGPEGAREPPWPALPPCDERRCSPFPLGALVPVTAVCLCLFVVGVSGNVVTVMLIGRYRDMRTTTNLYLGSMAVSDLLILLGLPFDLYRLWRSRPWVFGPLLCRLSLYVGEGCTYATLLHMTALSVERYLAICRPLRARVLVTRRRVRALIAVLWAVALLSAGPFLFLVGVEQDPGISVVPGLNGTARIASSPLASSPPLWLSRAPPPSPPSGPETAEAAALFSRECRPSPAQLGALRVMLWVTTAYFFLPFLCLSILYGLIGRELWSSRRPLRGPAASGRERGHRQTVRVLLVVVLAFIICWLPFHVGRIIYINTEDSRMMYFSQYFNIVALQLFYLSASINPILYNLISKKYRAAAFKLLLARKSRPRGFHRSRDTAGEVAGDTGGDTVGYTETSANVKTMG
Chain of Histamine H1 receptor (P35367 whole entry): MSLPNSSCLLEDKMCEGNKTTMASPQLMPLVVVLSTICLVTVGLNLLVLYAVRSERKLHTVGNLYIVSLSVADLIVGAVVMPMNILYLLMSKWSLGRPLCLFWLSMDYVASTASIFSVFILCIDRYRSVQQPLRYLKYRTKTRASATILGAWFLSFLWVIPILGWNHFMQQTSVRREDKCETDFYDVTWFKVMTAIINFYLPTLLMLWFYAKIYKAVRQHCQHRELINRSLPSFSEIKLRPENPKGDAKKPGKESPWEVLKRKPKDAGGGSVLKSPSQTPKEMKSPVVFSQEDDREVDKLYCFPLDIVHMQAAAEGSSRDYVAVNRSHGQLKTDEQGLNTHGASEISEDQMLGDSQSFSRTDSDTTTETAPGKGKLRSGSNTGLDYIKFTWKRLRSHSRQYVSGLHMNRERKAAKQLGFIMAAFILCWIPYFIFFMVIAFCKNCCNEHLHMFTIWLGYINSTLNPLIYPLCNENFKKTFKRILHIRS
Chain of Melanocortin receptor 3 (P41968 whole entry): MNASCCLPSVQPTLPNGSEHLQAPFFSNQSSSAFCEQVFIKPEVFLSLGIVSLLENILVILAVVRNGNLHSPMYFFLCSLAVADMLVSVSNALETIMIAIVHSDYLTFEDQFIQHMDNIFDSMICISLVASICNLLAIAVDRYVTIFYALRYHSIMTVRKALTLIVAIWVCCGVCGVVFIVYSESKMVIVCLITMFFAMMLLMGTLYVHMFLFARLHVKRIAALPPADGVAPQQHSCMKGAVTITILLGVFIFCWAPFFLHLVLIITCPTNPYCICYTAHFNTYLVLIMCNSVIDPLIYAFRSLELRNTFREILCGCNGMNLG
Chain of Gamma-aminobutyric acid receptor subunit alpha-1 (P62813 whole entry): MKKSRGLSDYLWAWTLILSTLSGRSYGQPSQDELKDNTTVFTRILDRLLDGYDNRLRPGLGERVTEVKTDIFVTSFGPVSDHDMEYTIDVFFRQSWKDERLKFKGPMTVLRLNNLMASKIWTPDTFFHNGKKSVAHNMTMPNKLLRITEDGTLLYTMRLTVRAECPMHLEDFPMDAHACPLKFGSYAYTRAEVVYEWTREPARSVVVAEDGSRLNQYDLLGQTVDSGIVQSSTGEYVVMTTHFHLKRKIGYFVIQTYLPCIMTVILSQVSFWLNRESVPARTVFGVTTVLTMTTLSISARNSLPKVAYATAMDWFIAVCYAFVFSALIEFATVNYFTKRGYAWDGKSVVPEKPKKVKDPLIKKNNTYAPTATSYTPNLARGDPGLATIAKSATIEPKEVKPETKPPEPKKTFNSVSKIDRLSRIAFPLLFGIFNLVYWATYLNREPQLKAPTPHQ
Chain of Sodium-dependent serotonin transporter (P31645 whole entry): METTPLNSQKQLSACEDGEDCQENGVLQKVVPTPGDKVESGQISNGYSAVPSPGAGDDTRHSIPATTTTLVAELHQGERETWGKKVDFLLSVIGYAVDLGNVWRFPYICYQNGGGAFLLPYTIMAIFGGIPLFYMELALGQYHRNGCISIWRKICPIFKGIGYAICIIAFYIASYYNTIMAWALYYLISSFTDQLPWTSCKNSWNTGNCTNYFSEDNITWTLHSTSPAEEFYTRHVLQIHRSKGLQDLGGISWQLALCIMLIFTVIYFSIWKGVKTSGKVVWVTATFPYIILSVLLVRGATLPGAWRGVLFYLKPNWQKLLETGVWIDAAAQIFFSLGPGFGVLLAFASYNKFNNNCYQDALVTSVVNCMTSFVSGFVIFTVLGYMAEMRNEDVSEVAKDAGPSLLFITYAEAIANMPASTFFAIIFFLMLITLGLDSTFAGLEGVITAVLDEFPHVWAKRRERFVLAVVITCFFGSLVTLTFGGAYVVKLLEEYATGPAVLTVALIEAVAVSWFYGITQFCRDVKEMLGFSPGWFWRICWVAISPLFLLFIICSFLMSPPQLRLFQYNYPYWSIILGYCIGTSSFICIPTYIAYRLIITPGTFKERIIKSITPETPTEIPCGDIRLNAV

As to `C[C@H](CSC(=O)c1ccccc1)C(=O)N1C[C@@H](Sc2ccccc2)C[C@H]1C(=O)O` [ZOFENOPRIL], the AC50 was more than 30 µM in [1]; more than 10 µM in assay [2]; more than 10 µM on Motilin receptor; more than 10 µM in [3]; more than 10 µM on Histamine H1 receptor; more than 10 µM in assay [4]. Besides, the AC50 was more than 10 µM at Melanocortin receptor 3; more than 10 µM in assay [5]; more than 10 µM in assay [6]; more than 10 µM in [7]; more than 10 µM in assay [8]; more than 30 µM in assay [9].

With `C[C@]1(O)CC[C@H]2[C@@H]3CCC4=CC(=O)CC[C@]4(C)[C@@]3(F)[C@@H](O)C[C@@]21C` [FLUOXYMESTERONE], the AC50 was more than 30 µM in assay [1]; more than 10 µM in assay [2]; more than 10 µM on Motilin receptor; more than 10 µM in assay [3]; more than 30 µM on Histamine H1 receptor; more than 10 µM in assay [4]. Further, the AC50 on Melanocortin receptor 3 is more than 10 µM; in [5], more than 10 µM; in [6], more than 30 µM; in assay [7], more than 10 µM; in assay [8] it was more than 10 µM; in assay [9] it was more than 30 µM.

For `C=CCC1(C(C)CC)C(=O)NC(=O)NC1=O` (stereo not drawn) [TALBUTAL], the AC50 in assay [1] was more than 30 µM; in assay [2], more than 10 µM; on Motilin receptor, more than 10 µM; in assay [3], more than 10 µM; on Histamine H1 receptor, more than 10 µM; in assay [4], more than 10 µM. Moreover, the AC50 on Melanocortin receptor 3 was more than 10 µM; in [5], more than 10 µM; in assay [6] it was more than 10 µM; in assay [7], more than 10 µM; in [8] it was more than 10 µM; in [9], more than 30 µM.

In the case of `Cc1cc(O)c(C(=O)N[C@@H](C(=O)N[C@@H]2C(=O)N3C(C(=O)O)=C(CSc4nnnn4C)CS[C@H]23)c2ccc(O)cc2)cn1` [CEFPIRAMIDE], the AC50 (in assay [1]; in assay [2]; at Motilin receptor; in assay [3]; at Histamine H1 receptor; in assay [4]) was more than 30 µM throughout. For the same molecule, the AC50 (on Melanocortin receptor 3; in assay [5]; in assay [6]; in assay [7]; in assay [8]; in [9]) was more than 30 µM throughout.

With `CO[C@@H]1[C@@H](O[C@@H]2O[C@H](C)[C@@H](O[C@H]3C[C@@](C)(O)[C@@H](OC(=O)CC(C)C)[C@H](C)O3)[C@H](N(C)C)[C@H]2O)[C@@H](CC=O)C[C@@H](C)[C@@H](O)/C=C/C=C/C[C@@H](C)OC(=O)C[C@H]1OC(C)=O` [JOSAMYCIN], the concentration at half-maximal activity (AC50) in assay [1] was more than 30 µM; in assay [2] it was more than 10 µM; on Motilin receptor, more than 10 µM; in assay [3], more than 10 µM; at Histamine H1 receptor, more than 10 µM; in assay [4] it was more than 10 µM. Moreover, the AC50 is more than 10 µM on Melanocortin receptor 3; more than 10 µM in assay [5]; more than 10 µM in assay [6]; more than 10 µM in assay [7]; more than 10 µM in assay [8]; more than 30 µM in assay [9].

As for `O=C(O)/C=C/c1ccc(Cn2ccnc2)cc1` [OZAGREL], the half-maximal activity concentration (AC50) (in [1]; in [2]; at Motilin receptor; in assay [3]; at Histamine H1 receptor; in [4]) was more than 30 µM in each case. Moreover, the AC50 (on Melanocortin receptor 3; in [5]; in [6]; in assay [8]; in assay [9]) was more than 30 µM each time.

Turning to `CC(C)(C)C(=O)Oc1ccc(S(=O)(=O)Nc2ccccc2C(=O)NCC(=O)O)cc1`, the AC50 in assay [1] was more than 30 µM; in assay [2], more than 10 µM; at Motilin receptor, more than 30 µM; in [3], more than 30 µM; on Histamine H1 receptor, more than 30 µM; in assay [4] it was more than 30 µM. Moreover, the AC50 (at Melanocortin receptor 3; in assay [5]; in assay [6]; in [8]; in assay [9]) was more than 30 µM throughout.

Take `COC(=O)C1=C(C)NC(C)=C(C(=O)OC2CCCN(Cc3ccccc3)C2)C1c1cccc([N+](=O)[O-])c1` (stereo not drawn) [BENIDIPINE]: the concentration at half-maximal activity (AC50) was more than 30 µM in assay [1]; more than 30 µM in [2]; 4.5 µM in assay [10]; 3.5 µM at Motilin receptor; more than 30 µM in assay [3]; 27 µM on Histamine H1 receptor. Besides, the AC50 is more than 30 µM in [4]; more than 30 µM at Melanocortin receptor 3; 1.5 µM in assay [5]; more than 30 µM in assay [6]; 8.2 µM in assay [7]; 4.2 µM in assay [9].

Consider `CCOC(=O)[N-]c1cn(N2CCOCC2)n[o+]1` [MOLSIDOMINE], for which the AC50 (in assay [1]; in assay [2]; in [10]; at Motilin receptor; in assay [3]; at Histamine H1 receptor) was more than 30 µM each time. Also, the AC50 (in assay [4]; on Melanocortin receptor 3; in assay [5]; in assay [6]; in assay [7]; in assay [9]) was more than 30 µM each time.

As to `CCCCCCOc1ccccc1C(N)=O` [EXALAMIDE], the AC50 (in assay [1]; in [2]; in assay [10]; at Motilin receptor; in assay [3]; on Histamine H1 receptor) was more than 30 µM each time. Moreover, the AC50 is more than 30 µM in [4]; more than 30 µM at Melanocortin receptor 3; 9.3 µM in assay [5]; more than 30 µM in [6]; more than 30 µM in assay [7]; more than 30 µM in assay [9].

One may read the AC50 as the concentration at which the activity in the assay is half-maximal. Read a high AC50 as activity only at high concentration.
